Assay results published in US11590116B2 (THERAVANCE BIOPHARMA R&D IP, LLC, priority 2019, dated 2023).

Tests used:
[1] = test system: TGF-β-stimulated SMAD3 phosphorylation in BEAS-2B cells; test: Cellular ALK5 potency assay, inhibition of TGF-β stimulated pSMAD3 formation in BEAS-2B cells; type: cell-based; conditions: Homo sapiens; inhibition of TGF-β stimulated pSMAD3 formation, BEAS-2B cells; read-out: BEAS2B pIC50 (converted)
Method in brief: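 Potency is reported as pIC50, derived from concentration-dependent reduction of pSMAD3 AlphaLISA signal against TGF-β-stimulated cells without compound. BEAS-2B cells received compound for 1 h before a 30-min stimulation with 10 ng/mL TGF-β.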

[2] = target: T1, recombinant human ALK5 (TGF-βR1) protein (Homo sapiens, UniProt P36897); test: Biochemical ALK5 (TGF-βR1) assay to measure pKi (LANCE Ultra ULight kinase assay); conditions: apparent pKi from pIC50 by Cheng-Prusoff, read-out: ALK5 pKi (converted)
T1 construct: purchased Life Technologies PR9075A
T1 sequence (P36897 34-503): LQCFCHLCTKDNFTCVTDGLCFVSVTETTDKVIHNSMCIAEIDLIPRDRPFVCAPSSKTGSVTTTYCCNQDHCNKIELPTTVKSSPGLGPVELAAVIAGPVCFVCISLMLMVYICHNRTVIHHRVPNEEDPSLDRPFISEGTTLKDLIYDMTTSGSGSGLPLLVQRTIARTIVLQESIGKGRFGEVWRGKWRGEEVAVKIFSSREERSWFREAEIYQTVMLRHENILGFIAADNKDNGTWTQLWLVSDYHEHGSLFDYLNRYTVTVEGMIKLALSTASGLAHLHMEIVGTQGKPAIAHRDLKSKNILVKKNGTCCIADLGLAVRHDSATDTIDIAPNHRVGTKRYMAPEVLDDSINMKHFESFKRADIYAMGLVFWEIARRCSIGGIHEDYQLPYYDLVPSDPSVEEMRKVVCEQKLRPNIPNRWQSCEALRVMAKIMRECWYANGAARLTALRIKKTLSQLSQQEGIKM
Method in brief: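 Compounds (10 μM to 25 pM) preincubated 60 minutes at room temperature with enzyme, then reaction run 60 minutes at 37° C with ATP added as 125 μM (5× final). Stopped with EDTA plus Eu-anti-phospho-Topoisomerase 2-alpha (Thr1342) antibody, TR-FRET read at 665 nm; pIC50 converted to pKi via Cheng-Prusoff.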

Ki [2] [nM]	Compound	IC50 [1] [nM]
0.398 to 3.16	CNC1CCN(c2cnc3ccc(-c4c(-c5cccc(C)n5)[nH]c5cccnc45)nc3c2)CC1 [Compound 328, N-methyl-1-[6-[2-(6-methyl-2-pyridyl)-1H-pyrrolo[3,2-b]pyridin-3-yl]-1,5-naphthyridin-3-yl]piperidin-4-amine]	200 to 1260
0.398 to 3.16	Cc1cccc(-c2[nH]cnc2-c2ccc3ncc(C(=O)O[C@@H]4CCCC[C@H]4N)cc3c2)n1 [Compound 880, (1R,2R)-2-aminocyclohexyl 6-(5-(6-methylpyridin-2-yl)-1H-imidazol-4-yl)quinoline-3-carboxylate]	25.1 to 158
0.0398 to 0.316	Cc1cccc(-c2[nH]cnc2-c2ccc3ncc(C4=CCNC4)cc3n2)n1 [Compound 410, 7-(2,5-dihydro-1H-pyrrol-3-yl)-2-[5-(6-methyl-2-pyridyl)-1H-imidazol-4-yl]-1,5-naphthyridine]	25.1 to 158
0.0398 to 0.316	Cc1cccc(-c2[nH]cnc2-c2ccc3ncc(-c4nccc(C(=O)OC5CCNCC5)n4)cc3c2)n1 [Compound 1102, 4-piperidyl 2-[6-[5-(6-methyl-2-pyridyl)-1H-imidazol-4-yl]-3-quinolyl]pyrimidine-4-carboxylate]	200 to 1260
0.0398 to 0.316	Cc1cccc(-c2[nH]cnc2-c2ccc3ncc(-c4ccc(C(=O)OC5CNC5)s4)cc3c2)n1 [Compound 1006, azetidin-3-yl 5-(6-(5-(6-methylpyridin-2-yl)-1H-imidazol-4-yl)quinolin-3-yl)thiophene-2-carboxylate]	25.1 to 158
< 0.0316	Cc1cccc(-c2nc[nH]c2-c2ccc3ncc(-c4cnn([C@H]5CCCC[C@@H]5N)c4)cc3c2)n1 [Compound 656, (1S,2S)-2-[4-[6-[4-(6-methyl-2-pyridyl)-1H-imidazol-5-yl]-3-quinolyl]pyrazol-1-yl]cyclohexanamine]	< 20
< 0.0316	Cc1cccc(-c2n[nH]cc2-c2ccc3ncc(N4CC[C@H](N(C)C)C4)cc3c2)n1 (racemic) [Compound 70, rac-(3S)-N,N-dimethyl-1-[6-[3-(6-methyl-2-pyridyl)-1H-pyrazol-4-yl]-3-quinolyl]pyrrolidin-3-amine]	25.1 to 158
0.0398 to 0.316	Cc1cccc(-c2[nH]cnc2-c2ccc3ncc(C4=CCC5(CC4)CNC5)cc3c2)n1 [Compound 294, 3-(2-azaspiro[3.5]non-6-en-7-yl)-6-[5-(6-methyl-2-pyridyl)-1H-imidazol-4-yl]quinoline]	25.1 to 158
< 0.0316	Cc1cccc(-c2[nH]cnc2-c2ccc3ncc(-c4csc(C(=O)OC[C@H]5CCCNC5)c4)cc3c2)n1 [Compound 1253, [(3S)-3-piperidyl]methyl 4-[6-[5-(6-methyl-2-pyridyl)-1H-imidazol-4-yl]-3-quinolyl]thiophene-2-carboxylate]	25.1 to 158
0.398 to 3.16	CNCc1ccnc2ccc(-c3nc[nH]c3-c3cccc(C)n3)cc12 [Compound 100, N-methyl-1-[6-[5-(6-methyl-2-pyridyl)-1H-imidazol-4-yl]-4-quinolyl]methanamine]	25.1 to 158
0.0398 to 0.316	CNC(=O)[C@H]1CN(c2cnc3ccc(-c4nc[nH]c4-c4cccc(C)n4)cc3c2)CCN1 [Compound 376, (2R)-N-methyl-4-[6-[5-(6-methyl-2-pyridyl)-1H-imidazol-4-yl]-3-quinolyl]piperazine-2-carboxamide]	200 to 1260

The next lines start with the compound.

Compound	Ki [2] [nM]	IC50 [1] [nM]
COC(=O)N1CCc2nnc(-c3cnc4ccc(-c5c[nH]nc5-c5cccc(C)n5)nc4c3)cc2C1 [Compound 613, methyl 3-[6-[3-(6-methyl-2-pyridyl)-1H-pyrazol-4-yl]-1,5-naphthyridin-3-yl]-7,8-dihydro-5H-pyrido[4,3-c]pyridazine-6-carboxylate]	0.0398 to 0.316	25.1 to 158
Cc1cccc(-c2n[nH]cc2-c2ccc3ncc(-c4nc5c([nH]4)CCNC5)cc3n2)n1 [Compound 134, 2-[3-(6-methyl-2-pyridyl)-1H-pyrazol-4-yl]-7-(4,5,6,7-tetrahydro-1H-imidazo[4,5-c]pyridin-2-yl)-1,5-naphthyridine]	0.0398 to 0.316	1580 to 10000
Cc1cccc(-c2n[nH]cc2-c2ccc3ncc(N4CCC(N5CCN(C)CC5)CC4)cc3n2)n1 [Compound 205, 7-[4-(4-methylpiperazin-1-yl)-1-piperidyl]-2-[3-(6-methyl-2-pyridyl)-1H-pyrazol-4-yl]-1,5-naphthyridine]	0.0398 to 0.316	25.1 to 158
Cc1nc(-c2nc3ccccn3c2-c2ccc3ncc(-c4cc5n(n4)CCNC5)cc3n2)ccc1F [Compound 558, 2-[2-(5-fluoro-6-methyl-2-pyridyl)imidazo[1,2-a]pyridin-3-yl]-7-(4,5,6,7-tetrahydropyrazolo[1,5-a]pyrazin-2-yl)-1,5-naphthyridine]	0.0398 to 0.316	25.1 to 158
Cc1nc(-c2[nH]cnc2-c2ccc3ncc(-c4cnn(CCN)c4)cc3n2)ccc1F [Compound 225, 2-[4-[6-[5-(5-fluoro-6-methyl-2-pyridyl)-1H-imidazol-4-yl]-1,5-naphthyridin-3-yl]pyrazol-1-yl]ethanamine]	0.0398 to 0.316	25.1 to 158
CNCCn1cc(-c2cnc3ccc(-c4c[nH]nc4-c4ccc(F)c(C)n4)cc3c2)cn1 [Compound 634, 2-[4-[6-[3-(5-fluoro-6-methyl-2-pyridyl)-1H-pyrazol-4-yl]-3-quinolyl]pyrazol-1-yl]-N-methyl-ethanamine]	< 0.0316	< 20
CNC1(Cn2cc(-c3cnc4ccc(-c5c[nH]nc5-c5ccc(F)c(C)n5)nc4c3)cn2)CC1 [Compound 97, 1-[[4-[6-[3-(5-fluoro-6-methyl-2-pyridyl)-1H-pyrazol-4-yl]-1,5-naphthyridin-3-yl]pyrazol-1-yl]methyl]-N-methyl-cyclopropanamine]	< 0.0316	< 20
Cc1cccc(-c2[nH]ncc2-c2ccc3ncc(C(=O)O[C@H]4CCN(C)C4)cc3n2)n1 [Compound 563, [(3S)-1-methylpyrrolidin-3-yl]6-[5-(6-methyl-2-pyridyl)-1H-pyrazol-4-yl]-1,5-naphthyridine-3-carboxylate]	0.0398 to 0.316	25.1 to 158
Cc1cccc(-c2[nH]ncc2-c2ccc3ncc(-c4nnco4)cc3n2)n1 [Compound 677, 2-[6-[5-(6-methyl-2-pyridyl)-1H-pyrazol-4-yl]-1,5-naphthyridin-3-yl]-1,3,4-oxadiazole]	0.0398 to 0.316	25.1 to 158
Cc1nc(-c2n[nH]cc2-c2ccc3ncc(-c4nnn5c4NCC5)cc3n2)ccc1F [Compound 520, 7-(5,6-dihydro-4H-imidazo[1,2-c]triazol-3-yl)-2-[3-(5-fluoro-6-methyl-2-pyridyl)-1H-pyrazol-4-yl]-1,5-naphthyridine]	< 0.0316	25.1 to 158
Cc1nc(-c2[nH]cnc2-c2ccc3ncc(NCCN4CCCC4(C)C)cc3n2)ccc1F [Compound 603, N-[2-(2,2-dimethylpyrrolidin-1-yl)ethyl]-6-[5-(5-fluoro-6-methyl-2-pyridyl)-1H-imidazol-4-yl]-1,5-naphthyridin-3-amine]	< 0.0316	25.1 to 158
Cc1cccc(-c2[nH]cnc2-c2ccc3ncc(C4=CCC(NCc5ccccc5)CC4)cc3n2)n1 (centres unmarked) [Compound 228, N-benzyl-4-[6-[5-(6-methyl-2-pyridyl)-1H-imidazol-4-yl]-1,5-naphthyridin-3-yl]cyclohex-3-en-1-amine]	0.0398 to 0.316	200 to 1260
CCOC(=O)Cc1ccnc2ccc(-c3c[nH]nc3-c3cccc(C)n3)nc12 [Compound 855, ethyl 2-[6-[3-(6-methyl-2-pyridyl)-1H-pyrazol-4-yl]-1,5-naphthyridin-4-yl]acetate]	0.0398 to 0.316	25.1 to 158
CNc1cnc2ccc(-c3c[nH]nc3-c3cccc(C)n3)nc2c1 [Compound 106, N-methyl-6-[3-(6-methyl-2-pyridyl)-1H-pyrazol-4-yl]-1,5-naphthyridin-3-amine]	0.0398 to 0.316	< 20
Cc1cccc(-c2[nH]ncc2-c2ccc3nccc(C(=O)OC[C@@H]4CCCN4)c3c2)n1 [Compound 1233, [(2S)-pyrrolidin-2-yl]methyl 6-[5-(6-methyl-2-pyridyl)-1H-pyrazol-4-yl]quinoline-4-carboxylate]	0.0398 to 0.316	25.1 to 158
Cc1nc(-c2nc3ccccn3c2-c2ccc3ncc(N4CCC(N(C)C)C4)cc3c2)ccc1F (racemic) [Compound 544, rac-(3S)-1-[6-[2-(5-fluoro-6-methyl-2-pyridyl)imidazo[1,2-a]pyridin-3-yl]-3-quinolyl]-N,N-dimethyl-pyrrolidin-3-amine]	0.0398 to 0.316	25.1 to 158
Cc1cccc(-c2nnn(Cc3ccccc3)c2-c2ccc3ncc(N4CCC(N5CCN(C)CC5)CC4)cc3n2)n1 [Compound 475, 2-[3-benzyl-5-(6-methyl-2-pyridyl)triazol-4-yl]-7-[4-(4-methylpiperazin-1-yl)-1-piperidyl]-1,5-naphthyridine]	0.0398 to 0.316	200 to 1260
